Earlier results as cited in article PMC8955938, “c-Myc Protein Level Affected by Unsymmetrical Bisacridines Influences Apoptosis and Senescence Induced in HCT116 Colorectal and H460 Lung Cancer Cells” (International Journal of Molecular Sciences, 2022).

Set-up: method as in PMID 26485768, PMID 17009029, PMID 21805041, PMID 30894570
Settings: established in similar conditions; irinotecan colon cancer treatment, cisplatin lung cancer treatment; cited from earlier work

Structure (SMILES) | IC50 [µM]
N.N.[Cl][Pt][Cl] [cisplatin] | ~5
CCc1c2c(nc3ccc(OC(=O)N4CCC(N5CCCCC5)CC4)cc13)-c1cc3c(c(=O)n1C2)COC(=O)[C@]3(O)CC [irinotecan] | ~5
